One series concerns the target T1, JAK1 (Homo sapiens, UniProt P23458).
T1 construct: purchased Life technology
Put plainly: Test for in vitro activity of JAK1 kinase (LANCE Ultra ULight peptide). The format is biochemical. Particulars: recombinant human JAK1, 38 uM ATP, 90 min. The protocol: (§1) Test for in vitro activity of Jak1, Jak2, and Jak3 Kinase
(§2) Recombinant human […] of JAK1, JAK2 and JAK3 were purchased from Life technology. LANCE Ultra ULight™-JAK-1 (Tyr1023) peptide and LANCE Eu-W1024 Anti-phosphotyrosine (PT66) were purchased from PerkinElmer. Multimode ELISA, Envison(PerkinElmer) reader was used.
(§3) The test compound was diluted according to gradient of three times concentration with a final concentration of from 10 uM to 0.17 nM at 11 concentrations totally, each concentration with two complex holes, and the content of DMSO in the detection was 1%.
2 nM of JAK1 Protein kinase, 50 nM of LANCE Ultra ULight™-JAK-1(Tyr1023) peptide, 38 uM of ATP, 50 mM of HEPES (pH 7.5), 10 mM of MgCl2, 1 mM of EGTA, 2 mM of DTT, 0.01% BRIJ-35. Checker board is White Proxiplate 384-Plus plate (PerkinElmer). The reaction was carried out at room temperature for 90 min and the reaction system was 10 ul.
(§4) 10 ul detection reagent was added to reaction plate, wherein the final concentration of LANCE Eu-W1024 Anti-phosphotyrosine (PT66) was 2 nM, the final concentration of EDTA was […], incubated at room temperature for 60 min, with Envison reader.
(§5) The reading was converted to inhibition ratio (%) by the following formula: the inhibition ratio (%)=([…])/(Max−Min)×100%.
In general terms: Time-resolved FRET reads energy transfer from a long-lived donor to a nearby acceptor.

Another series addresses T2, JAK2 (Homo sapiens, UniProt O60674).
T2 construct: purchased Life technology
As to the kind of experiment: Test for in vitro activity of JAK2 kinase (LANCE Ultra ULight peptide). The series is classed as biochemical. Particulars: recombinant human JAK2, 12 uM ATP, 60 min. As for the experimental part:
as §1, §2, §3
0.02 nM of JAK2 Protein kinase, 50 nM of LANCE Ultra ULight™-JAK-1(Tyr1023) peptide, 12 uM of ATP, 50 mM of HEPES (pH 7.5), 10 mM of MgCl2, 1 mM of EGTA, 2 mM of DTT, 0.01% BRIJ-35. Checker board is White Proxiplate 384-Plus plate (PerkinElmer). The reaction was carried out at room temperature for 60 min and the reaction system was 10 ul.
as §4, §5

Series [1] can be described thus: Pharmacokinetic (PK) test in mice. The series is classed as in vivo, DBA/1 mice. As to conditions: for bioavailability / AUC(0-inf) / Cmax / half-life: mouse, plasma, po, DBA/1 mice, mean; for bioavailability: gavage vs tail vein injection; for AUC(0-inf) / Cmax / half-life: tail vein injection and gavage. The protocol:
Pharmacokinetic (PK) Test
The clear solution obtained by dissolving the test compound was respectively administrated by tail vein injection and gavage into the mice DBA/1 mice (overnight fasting, 7 to 8 weeks old). After administration of the test compound, the mice in the vein injection group at 0.083, 0.25, 0.5, 1, 2, 4, 8 and 24 hours, and gavage group at 0.25, 0.5, 1, 2, 4, 8 and 24 hours, blood is collected from the mandibular vein and centrifuged to obtain plasma. The plasma concentration was determined by LC-MS/MS. The pharmacokinetic parameters were calculated by non-compartmental model linear logarithmic trapezoid method with using WinNonlin™ Version 6.3 pharmacokinetic software.

For series [2], the system named is rat adjuvant arthritis model. As to the kind of experiment: Rat adjuvant-induced arthritis model efficacy test. The format is in vivo. As to conditions: Lewis rats, oral; for AUC (%): two weeks of administration from day 13; for arthritis inhibitory activity (in words): swollen foot volume and score. As for the experimental part:
Rat Adjuvant-Induced Arthritis Model Efficacy Test
The effect of the compounds of the present invention on the treatment of arthritis was verified by rat adjuvant arthritis models.
Female, Lewis rats with body weight 160-180 g were anesthetized with isoflurane and was injected with 0.1 ml of mycobacterium tuberculosis suspension subcutaneously in the left posterior foot. After modeling for 13 days, the corresponding test compound was administrated, such as that the rats were respectively administrated with 1 mpk, 3 mpk, 10 mpk of the test compound WX614, 10 mpk of the test compound WX552, and 10 mpk of the test compound WX591 dissolved in a mixed solvent of DMSO/PEG400/H2O, and orally administered to female Lewis rats (10 rats in each dose group). Two weeks after continuous administration, the state of the rats was observed and the volume of the swollen foot was recorded and scored.

Series [3] deals with mouse collagen-induced arthritis model. As to the kind of experiment: Mouse collagen-induced arthritis model efficacy test. The series is classed as in vivo, DBA/1 male mice. As to conditions: CIA mice, oral, 2 weeks. As for the experimental part: Mouse Collagen-Induced Arthritis Model Efficacy Test
The effect of the compounds of the present invention on the treatment of arthritis was verified by the mouse collagen-induced arthritis model.
The DBA/l male mice were selected and injected subcutaneously with the emulsions of collagen and Freund's complete adjuvant at base of tail on day 0 and day 21, and on day 29 the mice was divided into groups. The compound WX6144 (3 mpk, 10 mpk, 30 mpk) was dissolved in DMSO/PEG400/H2O [5/20/75 (v/v/v)] and administered orally to CIA mice (Shanghai SLAC Laboratory Animal Co., Ltd, 10 mice in each dose group), and the mice were continuously administrated for 2 weeks, the weight of mice were recorded and the arthritis of mice was clinically scored.

As usually defined, the pIC50 is the negative decadic logarithm of the IC50, by convention in mol/L. In general, bioavailability refers to the share of a dose that reaches the circulation, judged against a reference dose that is usually intravenous. The AUC(0-inf) is total exposure, with the tail of the curve extrapolated. High values mean high exposure, low ones low exposure. The Cmax is the peak of the concentration-time curve. As a reminder, the half-life is the time needed for the level to fall by half in the phase considered. A low value points to rapid decline.

Structures are written as SMILES. pIC50: −log10 of the molar value.

T1 sequence (P23458 whole entry): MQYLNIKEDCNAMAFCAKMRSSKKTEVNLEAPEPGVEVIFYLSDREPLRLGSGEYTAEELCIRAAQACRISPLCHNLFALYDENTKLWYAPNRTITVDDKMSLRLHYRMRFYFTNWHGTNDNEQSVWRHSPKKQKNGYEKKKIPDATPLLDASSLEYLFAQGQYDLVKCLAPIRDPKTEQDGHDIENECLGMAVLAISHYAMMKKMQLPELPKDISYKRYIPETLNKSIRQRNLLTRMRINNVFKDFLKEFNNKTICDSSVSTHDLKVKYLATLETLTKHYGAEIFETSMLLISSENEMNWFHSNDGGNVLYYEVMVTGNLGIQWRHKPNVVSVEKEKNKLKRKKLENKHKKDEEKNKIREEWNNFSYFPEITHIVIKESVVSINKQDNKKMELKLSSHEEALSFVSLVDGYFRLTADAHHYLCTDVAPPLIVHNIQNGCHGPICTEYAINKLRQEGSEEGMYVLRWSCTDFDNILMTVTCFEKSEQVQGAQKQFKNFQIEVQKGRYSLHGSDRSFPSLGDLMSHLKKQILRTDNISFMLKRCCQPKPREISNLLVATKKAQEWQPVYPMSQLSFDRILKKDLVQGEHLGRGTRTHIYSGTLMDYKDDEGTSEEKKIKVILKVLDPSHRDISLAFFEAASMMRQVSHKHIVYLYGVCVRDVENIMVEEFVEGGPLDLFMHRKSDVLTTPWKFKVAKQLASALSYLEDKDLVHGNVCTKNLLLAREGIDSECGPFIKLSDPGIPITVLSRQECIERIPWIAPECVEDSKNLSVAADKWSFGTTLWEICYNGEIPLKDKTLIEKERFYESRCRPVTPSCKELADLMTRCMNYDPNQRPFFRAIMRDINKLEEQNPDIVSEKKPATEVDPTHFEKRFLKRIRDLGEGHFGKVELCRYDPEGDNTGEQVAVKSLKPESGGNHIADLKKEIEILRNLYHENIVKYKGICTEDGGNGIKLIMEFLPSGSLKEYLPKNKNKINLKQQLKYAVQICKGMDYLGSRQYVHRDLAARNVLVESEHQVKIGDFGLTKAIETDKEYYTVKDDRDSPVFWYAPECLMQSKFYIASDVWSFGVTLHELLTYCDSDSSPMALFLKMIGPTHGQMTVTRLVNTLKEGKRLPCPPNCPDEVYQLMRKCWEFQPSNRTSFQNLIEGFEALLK
T2 sequence (O60674 whole entry): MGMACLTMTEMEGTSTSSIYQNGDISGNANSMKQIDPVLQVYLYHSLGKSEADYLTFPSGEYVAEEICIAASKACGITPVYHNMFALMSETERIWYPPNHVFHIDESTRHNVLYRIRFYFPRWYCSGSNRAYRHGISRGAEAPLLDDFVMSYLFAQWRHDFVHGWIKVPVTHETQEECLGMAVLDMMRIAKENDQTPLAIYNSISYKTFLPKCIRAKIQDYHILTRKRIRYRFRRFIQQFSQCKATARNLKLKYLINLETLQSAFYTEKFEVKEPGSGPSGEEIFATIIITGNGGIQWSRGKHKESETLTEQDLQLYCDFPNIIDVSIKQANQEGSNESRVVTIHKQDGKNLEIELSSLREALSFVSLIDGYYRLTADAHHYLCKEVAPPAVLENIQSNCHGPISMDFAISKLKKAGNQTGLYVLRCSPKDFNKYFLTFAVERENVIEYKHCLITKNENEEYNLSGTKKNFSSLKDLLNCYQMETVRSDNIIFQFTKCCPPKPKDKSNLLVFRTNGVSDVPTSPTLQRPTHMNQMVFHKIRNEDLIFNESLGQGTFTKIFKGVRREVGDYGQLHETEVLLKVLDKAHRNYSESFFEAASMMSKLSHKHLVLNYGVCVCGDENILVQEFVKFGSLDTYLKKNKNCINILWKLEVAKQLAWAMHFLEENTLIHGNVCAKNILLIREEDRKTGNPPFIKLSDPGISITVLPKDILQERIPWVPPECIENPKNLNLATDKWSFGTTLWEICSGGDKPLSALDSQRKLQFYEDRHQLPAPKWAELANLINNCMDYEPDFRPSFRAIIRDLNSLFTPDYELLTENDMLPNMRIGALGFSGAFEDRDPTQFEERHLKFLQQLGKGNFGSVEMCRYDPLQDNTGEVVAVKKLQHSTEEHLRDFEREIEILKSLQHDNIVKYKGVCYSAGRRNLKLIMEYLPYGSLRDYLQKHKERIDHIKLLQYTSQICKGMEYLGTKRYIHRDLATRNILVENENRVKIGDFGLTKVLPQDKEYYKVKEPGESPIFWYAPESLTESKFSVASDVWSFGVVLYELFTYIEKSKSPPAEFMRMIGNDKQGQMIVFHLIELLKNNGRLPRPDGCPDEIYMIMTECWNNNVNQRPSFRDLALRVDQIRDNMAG

With `CNCc1cn2c(n1)CC(N(C)c1ncnc3[nH]ccc13)CC2` (centres unmarked) [WX605, N-methyl-N-[2-(methylaminomethyl)-5,6,7,8-tetrahydroimidazo[1,2-a]pyridine-7-yl]-7H-7H-pyrrolo[2,3-d]pyrimidine-4-amine], the pIC50 on JAK1 and at JAK2 was < 6.00 in each case.

For `CN(c1ncnc2[nH]ccc12)C1CCn2cc(C(=O)NCC(F)F)nc2C1` (centres unmarked) [WX580], the negative-log IC50 (pIC50) on JAK1 was 6.00 to 7.00; at JAK2, < 6.00.

With `CN(c1ncnc2[nH]ccc12)C1CCn2cc(C(=O)NCC(F)(F)F)nc2C1` (centres unmarked) [WX579], the pIC50 on JAK1 is 6.00 to 7.00; on JAK2, < 6.00.

For the compound `CN(c1ncnc2[nH]ccc12)C1CCn2cc(C(=O)NC3CC(F)(F)C3)nc2C1` (centres unmarked) [WX593, N-(3,3-difluorocyclobutyl)-7-[methyl(7H-pyrrolo[2,3-d]pyrimidine-4-yl]amino]-5,6,7,8-tetrahydroimidazo [1,2-a]pyridine-2-carboxamide], the pIC50 on JAK1 and on JAK2 was < 6.00 each time.

Consider `CN(c1ncnc2[nH]ccc12)C1CCn2cc(CC#N)nc2C1` (single isomer, unassigned) [WX613, (R or S)2-[7-[methyl(7H-pyrrolo[2,3-d]pyrimidine-4-yl)amino]-5,6,7,8-tetrahydroimidazo [1,2-a]pyridine-2-yl]acetonitrile], for which the pIC50 is 7.00 to 8.00 on JAK1 and 6.00 to 7.00 at JAK2.

With `CN(c1ncnc2[nH]ccc12)C1CCn2cc(CNS(C)(=O)=O)nc2C1` (centres unmarked) [WX606, N-((7-(methyl-(7H-pyrrolo[2,3-d]pyrimidine-4-yl)amine)-5,6,7,8-tetrahydroimidazo[1,2-a]pyridine-2-yl)methyl)methanesulfonamide], the pIC50 at JAK1 is 6.00 to 7.00; on JAK2, < 6.00.

For `CCOC(=O)c1cn2c(n1)CC(N(C)c1ncnc3[nH]ccc13)CC2` (centres unmarked) [WX550, ethyl 7-[methyl(7H-pyrrolo[2,3-d]pyrimidine-4-yl)amino]-5,6,7,8-tetrahydroimidazo[1,2-a]pyridine-2-carboxylate], the pIC50 is 6.00 to 7.00 on JAK1 and < 6.00 on JAK2.

Regarding `CN(c1ncnc2[nH]ccc12)C1CCn2cc(C(=O)NCCS(C)(=O)=O)nc2C1` (centres unmarked) [WX592], the pIC50 at JAK1 and at JAK2 was < 6.00 throughout.

In the case of `CN(c1ncnc2[nH]ccc12)[C@@H]1CCn2cc(C#N)nc2C1` (single isomer, unassigned) [WX615, (R or S) 7-[methyl-[7 hydropyrrolo[2,3-d]pyrimidine-4-yl]amino]-5,6,7,8-tetrahydroimidazo [1,2-a]pyridine-2-nitrile], the pIC50 at JAK1 and at JAK2 was < 6.00 each time.

Consider `CN(c1ncnc2[nH]ccc12)C1CCn2cc(CC#N)nc2C1` (single isomer, unassigned) [WX612, (S or R) 2-[7-[methyl(7H-pyrrolo[2,3-d]pyrimidine-4-yl)amino]-5,6,7,8-tetrahydroimidazo[1,2-a]pyridine-2-yl]acetonitrile], for which the pIC50 on JAK1 and at JAK2 was < 6.00 throughout.

Consider `CN(c1ncnc2[nH]ccc12)C1CCn2cc(C#N)nc2C1` (racemic) [WX591, 7-[methyl-[7 hydropyrrolo[2,3-d]pyrimidine-4-yl]amino]-5,6,7,8-tetrahydroimidazo [1,2-a]pyridine-2-nitrile], for which the pIC50 on JAK1 was 7.00 to 8.00. Also, on JAK2, the pIC50 was 6.00 to 7.00. In series [1], the “oral bioavailability and exposure in mice (in words)” value (shortened to “oral bioavailability and exposure”) is “good oral bioavailability and higher exposure”; the bioavailability amounted to 87%; the AUC(0-inf) was 10.5 µM·h; the peak level (Cmax) was 3.02 µM. Further, the half-life in series [1] is 2.26 h. Also, the “AUC (%)” value in series [2] (10 mg/kg) is 44.7%. In series [2], the “arthritis inhibitory activity (in words)” value is listed as “good arthritis inhibitory activity”.

Turning to `CN(c1ncnc2[nH]ccc12)[C@H]1CCn2cc(C#N)nc2C1` (single isomer, unassigned) [WX614, (S or R) 7-[methyl-[7 hydropyrrolo[2,3-d]pyrimidine-4-yl]amino]-5,6,7,8-tetrahydroimidazo[1,2-a]pyridine-2-nitrile], the pIC50 at JAK1 was ≥ 8.00; at JAK2, 7.00 to 8.00. Further, in series [1], the “oral bioavailability and exposure” value was “good oral bioavailability and higher exposure”. Besides, the bioavailability in series [1] was 73.9%. In addition, in series [1], the AUC(0-inf) came to 10.2 µM·h. This compound also displayed a peak concentration (Cmax) in series [1] of 3.09 µM. For the same compound, the half-life in series [1] was 1.76 h. The “AUC (%)” value in series [2] (1 mg/kg) turned out to be 20.2%; in series [2] (3 mg/kg), 50.2%; in series [2] (10 mg/kg), 61.8%; in series [3] (3 mg/kg) it was 42.4%; in series [3] (10 mg/kg) it was 51.3%; in series [3] (30 mg/kg), 82.5%. Besides, in series [2], the “arthritis inhibitory activity (in words)” value was “good arthritis inhibitory activity”. Moreover, the “therapeutic effect on mouse rheumatoid arthritis (in words)” value in series [3] (clinical score) is “significant therapeutic effect”.

`CN(c1ncnc2[nH]ccc12)C1CCn2cc(C(=O)NCC#N)nc2C1` (centres unmarked) [WX581]: the pIC50 on JAK1 is 6.00 to 7.00; at JAK2 it was < 6.00.

As to `CN(c1ncnc2[nH]ccc12)C1CCn2cc(CO)nc2C1` (centres unmarked) [WX551], the negative logarithm of the IC50 (pIC50) at JAK1 was 6.00 to 7.00; on JAK2 it was < 6.00.

With `CNC(=O)c1cn2c(n1)CC(N(C)c1ncnc3[nH]ccc13)CC2` (centres unmarked) [WX604], the pIC50 is 6.00 to 7.00 on JAK1 and < 6.00 at JAK2.

As to `CN(c1ncnc2[nH]ccc12)C1CCn2cc(CC#N)nc2C1` (racemic) [WX552, 2-[7-[methyl(7H-pyrrolo[2,3-d]pyrimidine-4-yl)amino]-5,6,7,8-tetrahydroimidazo[1,2-a]pyridine-2-yl]acetonitrile], the pIC50 on JAK1 was 7.00 to 8.00. For the same compound, on JAK2, the pIC50 is 6.00 to 7.00. Besides, in series [1], the “oral bioavailability and exposure” value is “good oral bioavailability and higher exposure”; the bioavailability is 74.4%; the AUC(0-inf) was determined as 11.4 µM·h; the Cmax is 3.72 µM. Moreover, in series [1], the half-life was 1.18 h. In series [2] (10 mg/kg), the “AUC (%)” value came out at 31.7%. For the same compound, in series [2], the “arthritis inhibitory activity (in words)” value is listed as “good arthritis inhibitory activity”.

The record behind these values is patent US10174056B2, “Substituted pyrrolo[2,3-d]pyrimidines as janus kinase inhibitors” (WUXI FORTUNE PHARMACEUTICAL CO., LTD, priority 2015, dated 2019).
